Test results taken from patent US20220257774A1, “AROMATIC AMINE AR AHD BET TARGETING PROTEIN DEGRADATION CHIMERA COMPOUND AND USE” (HINOVA PHARMACEUTICALS INC., priority 2019, published 2022).
pIC50: −log10 of the molar value. Where two headings read alike, the source gives them in different places.

Test system: LNCaP/AR cells
Experiment: Inhibition of the proliferation of LNCap/AR cells (CCK-8)
Type: cell-based
Details: read-out: LNCap/AR IC50
Procedure, shortened: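 LNCaP/AR cells (1000/well, RPMI1640 + 10% FBS) were treated for 6 days at 37 °C with 9-point 3-fold dilutions from 10 μM final, 0.1% DMSO, in duplicate. Viability was read by CCK-8 absorbance at 450 nm after 1 h, and IC50 came from a dose-response-inhibition fit.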

[1] = 144 h, LNCaP/AR cells, 6 days culture, CCK-8

Structure (SMILES)	pIC50 [1]	other results
CC(=O)O[C@@H]1C[C@@H](C(=O)N[C@@H](C)c2ccc(-c3scnc3C)cc2)N(C(=O)[C@@H](NC(=O)COCCCCCN(c2ccc(-n3cnc(C)c3)c(Br)c2)c2cc(-c3c(C)noc3C)ccc2C)C(C)(C)C)C1 [Compound 52, (3R,5S)-1-((S)-2-(2-((5-((3-bromo-4-(4-methy-1H-imidazol-1-yl)phenyl)(5-(3,5-dimethylisoxazol-4-yl)-2-methylphenyl)amino)pentyl)oxy)acetamido)-3,3-dimethylbutyryl)-5-((S)-1-(4-methylthiazol-5-yl)phenyl)ethyl)carbamoyl)pyrrolidine-3-yl acetate]	–	pIC50 (LNCaP/AR cells, 6 days culture, CCK-8): 6.30 to 7.00
CCN(c1ccc(C#N)c(Cl)c1)c1cc(-c2c(C)nn(CCCCCOCC(=O)N[C@H](C(=O)N3C[C@H](OC(C)=O)C[C@H]3C(=O)N[C@@H](C)c3ccc(-c4scnc4C)cc3)C(C)(C)C)c2C)ccc1C [Compound 81, (3R,5S)-1-((S)-2-(2-((5-(4-(3-((3-chloro-4-cyanophenyl)(ethyl)amino)-4-methylphenyl)-3,5-dimethyl-1H-pyrazol-1-yl)pentyl)oxy)acetamido)-3,3-dimethylbutyryl)-5-((S)-1-(4-methylthiazol-5-yl)phenyl)ethyl)carbamoyl)pyrrolidine-3-yl acetate]	–	pIC50 (LNCaP/AR, 144 h): 5.70 to 6.30
CCCCCCCCC(CCCCCCCOCC(=O)N[C@H](C(=O)N1C[C@H](OC(C)=O)C[C@H]1C(=O)N[C@@H](C)c1ccc(-c2scnc2C)cc1)C(C)(C)C)N(c1ccc(-n2ccnc2)cc1)c1cc(-c2c(C)noc2C)ccc1C (stereo partly drawn) [Compound 88, (3R,5S)-1-((S)-2-(2-((8-((4-(1H-imidazol-1-yl)phenyl)(5-(3,5-dimethylisoxazol-4-yl)-2-methylphenyl)amino)cetyl)oxy)acetylamino)-3,3-dimethylbutyryl)-5-(((S)-1-(4-(4-methylthiazol-5-yl)phenyl)ethyl)carbamoyl)pyrrolidine-3-yl acetate]	5.70 to 6.30	–
Cc1ccc(-c2c(C)noc2C)cc1N(CCC1CCN(c2ccc3c(c2)C(=O)N(C2CCC(=O)NC2=O)C3=O)CC1)c1ccc(C2(C#N)CC2)cc1 (stereo not drawn) [Compound 28, 1-(4-((5-(3,5-Dimethylisoxazol-4-yl)-2-methylphenyl)(2-(1-(2-(2,6-dioxopiperidin-3-yl)-1,3-dioxoisoindolin-5-yl)piperidin-4-yl)ethyl)amino)phenyl)cyclopropane-1-carbonitrile]	6.30 to 7.00	–
CC(=O)O[C@@H]1C[C@@H](C(=O)N[C@@H](C)c2ccc(-c3scnc3C)cc2)N(C(=O)[C@@H](NC(=O)COCCCCCN(c2ccc(-n3ccnc3C)cc2)c2cc(-c3c(C)noc3C)ccc2C)C(C)(C)C)C1 [Compound 98, (3R,5S)-1-((S)-2-(2-((5-((5-(3,5-dimethylisoxazol-4-yl)-2-methylphenyl)(4-(2-methyl-1H-imidazol-1-yl)phenyl)amino)pentyl)oxy)acetylamino)-3,3-dimethylbutyryl)-5-(((S)-1-(4-(4-methylthiazol-5-yl)phenyl)ethyl)aminoformyl)pyrrolidinyl-3-yl acetate]	6.30 to 7.00	–
CC(=O)O[C@@H]1C[C@@H](C(=O)N[C@@H](C)c2ccc(-c3scnc3C)cc2)N(C(=O)[C@@H](NC(=O)COCCN2CCC(CN(c3ccc(-n4ccnc4)c(Br)c3)c3cc(-c4c(C)noc4C)ccc3C)CC2)C(C)(C)C)C1 [Compound 50, (3R,5S)-1-((S)-2-(2-(4-((3-bromo-4-(1H-imidazol-1-yl)phenyl) (5-(3,5-dimethylisoxazol-4-yl)-2-methylphenyl)amino)methyl)piperidin-1-yl)ethoxy)acetamido)-3,3-dimethylbutyryl)-5-((S)-1-(4-methylthiazol-5-yl)phenyl)ethyl)carbamoyl)pyrrolidine-3-yl acetate]	5.70 to 6.30	–
Cc1ccc(-c2c(C)noc2C)cc1N(CCCCCN1C(=O)CCC(N2Cc3cc(N)ccc3C2=O)C1=O)c1ccc(C#N)c(Cl)c1 (stereo not drawn) [Compound 59, 4-((5-(3-(5-amino-1-oxoisoindolin-2-yl)-2,6-dioxopiperidin-1-yl)pentyl)(5-(3,5-dimethylisoxazol-4-yl)-2-methylphenyl)amino)-2-chlorobenzonitrile]	–	pIC50 (LNCaP/AR, 144 h): 5.70 to 6.30

Second part, led by results:

pIC50 [1]	Structure (SMILES)	other results
6.30 to 7.00	CC(=O)O[C@@H]1C[C@@H](C(=O)N[C@@H](C)c2ccc(-c3scnc3C)cc2)N(C(=O)[C@@H](NC(=O)CN2CCC(CCCN(c3ccc(-n4ccnc4)c(Br)c3)c3cc(-c4c(C)noc4C)ccc3C)CC2)C(C)(C)C)C1 [Compound 142, (3R,5S)-1-((S)-2-(2-(4-(3-((3-Bromo-4-(1H-imidazol-1-yl)phenyl)(5-(3,5-4-yl)-2-methylphenyl)amino)propyl)piperidin-1-yl)acetamido)-3,3-dimethylbutyryl)-5-(((S)-1-(4-(4-methylthiazol-5-yl)phenyl)ethyl)carbamoyl)pyrrolidinyl-3-acetate]	–
< 5.70	Cc1ccc(-c2c(C)noc2C)cc1N(CCCCCOCC(=O)N[C@H](C(=O)N1C[C@H](O)C[C@H]1C(=O)N[C@@H](C)c1ccc(-c2scnc2C)cc1)C(C)(C)C)c1ccc(F)c(-n2ccnc2)c1 [Compound 16]	–
6.30 to 7.00	Cc1cn(-c2ccc(N(CCCCCOCC(=O)N[C@H](C(=O)N3C[C@H](O)C[C@H]3C(=O)N[C@@H](C)c3ccc(-c4scnc4C)cc3)C(C)(C)C)c3cc(-c4c(C)noc4C)ccc3C)cc2)cn1 [Compound 95, (2S,4R)-1-((S)-2-(2-((5-((5-(3,5-dimethylisoxazol-4-yl)-2-methylphenyl)(4-(4-methyl-1H-imidazol-1-yl)phenyl)amino)pentyl)oxy)acetylamino)-3,3-dimethylbutyryl)-4-hydroxy-N—((S)-1-(4-(4-methylthiazol-5-yl)phenyl)ethyl)-pyrrolidinyl-2-formamide]	–
> 7.00	Cc1cn(-c2ccc(N(CCCCCOCC(=O)N[C@H](C(=O)N3C[C@H](O)C[C@H]3C(=O)N[C@@H](C)c3ccc(-c4scnc4C)cc3)C(C)(C)C)c3cc(-c4c(C)noc4C)ccc3C)cc2Br)cn1 [Compound 53]	–
5.70 to 6.30	Cc1ccc(-c2c(C)noc2C)cc1N(CCCCCOCC(=O)Nc1cccc2c1CN(C1CCC(=O)NC1=O)C2=O)c1ccc(Br)cc1 (stereo not drawn) [Compound 27, 2-((5-((4-Bromophenyl)(5-(3,5-Dimethylisoxazol-4-yl)-2-methylphenyl)amino)pentyl)oxy)-N-(2-(2,6-dioxopiperidin-3-yl)-1-oxoisoindolin-4-yl)acetamide]	–
< 5.70	Cc1ccc(-c2c(C)noc2C)cc1N(CCCCCNc1ccc2c(c1)C(=O)N(C1CCC(=O)N(C)C1=O)C2=O)c1ccc(C2(C#N)CC2)cc1 (stereo not drawn) [Compound 151, 1-(4-((5-(3,5-Dimethylisoxazol-4-yl)-2-methylphenyl)(5-((2-(1-methyl-2,6-dioxopiperidin-3)-1,3-dicarbonylisoindolin-5-yl))amino)pentyl)amino)phenylcyclopropanecarbonitrile]	–
> 7.00	Cc1ccc(-c2c(C)noc2C)cc1N(CCCCCOCC(=O)N[C@H](C(=O)N1C[C@H](O)C[C@H]1C(=O)N[C@@H](C)c1ccc(-c2scnc2C)cc1)C(C)(C)C)c1ccc(-n2ccnn2)c(Br)c1 [Compound 19]	–
6.30 to 7.00	Cc1ccc(-c2c(C)noc2C)cc1N(CCCC1CCN(c2ccc3c(c2)C(=O)N(C2CCC(=O)NC2=O)C3=O)CC1)c1ccc(C2(C#N)CC2)cc1 (stereo not drawn) [Compound 30, 1-(4-((5-(3,5-Dimethylisoxazol-4-yl)-2-methylphenyl)(3-(1-(2-(2,6-dioxopiperidin-3-yl)-1,3-dioxoisoindolin-5-yl)piperidin-4-yl)propyl)amino)phenyl)cyclopropane-1-nitrile]	–
